In brackets after ≈: the same amount, converted by molar mass. Read-outs that look alike come from different tables or passages of the source.
Tests used:
Test in all cases: Antibacterial activity (MIC), agar dilution
Format in all cases: cell-based
[1] = test system: Ps. aeruginosa GN918**; settings: Pseudomonas aeruginosa, Ps. aeruginosa GN918, cephalospolinase-producing, 10^6 cells per ml
Source text: (§1) The amount of bacteria inoculated was 10^4 cells per plate (10^6 cells per ml).
(§2) ** Cephalospolinase-producing bacteria

[2] = test system: Pro. vulgaris GN76**; settings: Proteus vulgaris
Source text: as §1, §2

[3] = test system: E. coli GN5482**; settings: Escherichia coli
Source text: as §1, §2

[4] = test system: St. aureus F-137*; settings: Staphylococcus aureus, 20 h, St. aureus F-137, penicillinase-producing; 10^6 cells per ml; read-out: MIC
Source text: as §1
(§3) * Penicillinase-producing bacteria

[5] = test system: Kl. pneumoniae Y-4*; settings: Klebsiella pneumoniae, 20 h, Kl. pneumoniae Y-4, penicillinase-producing; 10^6 cells per ml; read-out: MIC
Source text: as §1, §3

[6] = test system: E. coli TK-3*; settings: Escherichia coli, 20 h
Source text: as §1, §3

[7] = test system: Ps. aeruginosa GN3379*; settings: Pseudomonas aeruginosa, 20 h; Ps. aeruginosa GN3379, penicillinase-producing; 10^6 cells per ml; read-out: MIC
Source text: as §1, §3

[8] = test system: St. aureus FDA209P; settings: Staphylococcus aureus, FDA209P, 20 h
Source text: as §1

[9] = test system: Pro. mirabilis T-111; settings: Proteus mirabilis, 37° C.
Source text: as §1

[10] = test system: Ent. cloacae IID977; settings: Enterobacter cloacae, IID977, 20 h
Source text: as §1

[11] = test system: Pro. vulgaris GN3027; settings: Proteus vulgaris, GN3027, 20 h, Pro. vulgaris GN3027; 10^6 cells per ml; 37° C., 20 hours; read-out: MIC
Source text: as §1

[12] = test system: E. coli TK-111; settings: Escherichia coli, TK111, 20 h, E. coli TK-111; 10^6 cells per ml; 37° C., 20 hours; read-out: MIC
Source text: as §1

[13] = test system: Kl. pneumoniae Y-50; settings: Klebsiella pneumoniae, Y50, 20 h, 10^6 cells per ml, 37° C., read-out: MIC
Source text: as §1

[14] = test system: Kl. pneumoniae Y-41; settings: Klebsiella pneumoniae, Y41, 10^6 cells per ml, 37° C., 20 hours, read-out: MIC
Source text: as §1

[15] = test system: Pro. morganii T-216; settings: Morganella morganii, 37° C.
Source text: as §1

[16] = test system: Ps. aeruginosa S-68; settings: Pseudomonas aeruginosa
Source text: as §1

[17] = test system: Ps. aeruginosa IFO3445; settings: Pseudomonas aeruginosa; Ps. aeruginosa IFO3445; 10^6 cells per ml; 37° C., 20 hours; read-out: MIC
Source text: as §1

[18] = test system: E. coli NIHJ JC-2; settings: Escherichia coli, NIHJJC2, 20 h
Source text: as §1

[19] = test system: Aci. antitratus A-6; settings: 20 h, Aci. antitratus A-6; 10^6 cells per ml; 37° C., 20 hours; read-out: MIC
Source text: as §1

[20] = 20 h, Pro. vulgaris GN76, cephalospolinase-producing, 10^6 cells per ml, read-out: MIC
[21] = 20 h, E. coli GN5482, cephalospolinase-producing, 10^6 cells per ml, read-out: MIC
[22] = E. coli TK-3, penicillinase-producing, 10^6 cells per ml, read-out: MIC
[23] = St. aureus FDA209P, 10^6 cells per ml, 37° C., 20 hours, read-out: MIC
[24] = T111, 10^6 cells per ml, 20 hours, read-out: MIC
[25] = Ent. cloacae IID977, 10^6 cells per ml, 37° C., 20 hours, read-out: MIC
[26] = T216, 10^6 cells per ml, 20 hours, read-out: MIC
[27] = S68, Ps. aeruginosa S-68, 10^6 cells per ml, 37° C., 20 hours, read-out: MIC
[28] = E. coli NIHJ JC-2, 10^6 cells per ml, 37° C., 20 hours, read-out: MIC

## O=C(O)c1cn(-c2ccc(O)cc2)c(-c2ccc(-n3cccn3)cc2)cc1=O
[1]; 20 h, read-out: MIC
  MIC: 3.13 µg/mL (≈ 8.38 µM)
[2]; [20]
  MIC: 1.56 µg/mL (≈ 4.18 µM)
[3]; [21]
  MIC: ≤ 0.05 µg/mL
[4]
  MIC: 0.39 µg/mL (≈ 1.04 µM)
[5]
  MIC: 0.78 µg/mL (≈ 2.09 µM)
[6]; [22]
  MIC: 0.2 µg/mL (≈ 0.536 µM)
[7]
  MIC: 6.25 µg/mL (≈ 16.7 µM)
[8]; [23]
  MIC: 0.39 µg/mL (≈ 1.04 µM)
[9]; [24]
  MIC: 3.13 µg/mL (≈ 8.38 µM)
[10]; [25]
  MIC: 0.2 µg/mL (≈ 0.536 µM)
[11]
  MIC: 0.39 µg/mL (≈ 1.04 µM)
[12]
  MIC: ≤ 0.05 µg/mL
[13]
  MIC: 0.2 µg/mL (≈ 0.536 µM)
[14]
  MIC: 0.78 µg/mL (≈ 2.09 µM)
[15]; [26]
  MIC: 1.56 µg/mL (≈ 4.18 µM)
[16]; [27]
  MIC: 6.25 µg/mL (≈ 16.7 µM)
[17]
  MIC: 6.25 µg/mL (≈ 16.7 µM)
[18]; [28]
  MIC: 0.1 µg/mL (≈ 0.268 µM)
[19]
  MIC: 0.78 µg/mL (≈ 2.09 µM)

## Cc1nc(-c2ccc(-c3cc(=O)c(C(=O)O)cn3-c3ccc(O)cc3C)cc2)cs1
[1]; 20 h, read-out: MIC
  MIC: 0.39 µg/mL (≈ 0.932 µM)
[2]; [20]
  MIC: 0.39 µg/mL (≈ 0.932 µM)
[3]; [21]
  MIC: ≤ 0.05 µg/mL
[4]
  MIC: ≤ 0.05 µg/mL
[5]
  MIC: 1.56 µg/mL (≈ 3.73 µM)
[6]; [22]
  MIC: 0.39 µg/mL (≈ 0.932 µM)
[7]
  MIC: 6.25 µg/mL (≈ 14.9 µM)
[8]; [23]
  MIC: ≤ 0.05 µg/mL
[9]; [24]
  MIC: 0.78 µg/mL (≈ 1.86 µM)
[10]; [25]
  MIC: 0.39 µg/mL (≈ 0.932 µM)
[11]
  MIC: 0.39 µg/mL (≈ 0.932 µM)
[12]
  MIC: ≤ 0.05 µg/mL
[13]
  MIC: 0.2 µg/mL (≈ 0.478 µM)
[14]
  MIC: 1.56 µg/mL (≈ 3.73 µM)
[15]; T216, 20 h, 10^6 cells per ml
  MIC: 1.56 µg/mL (≈ 3.73 µM)
[16]; [27]
  MIC: 3.13 µg/mL (≈ 7.48 µM)
[17]
  MIC: 3.13 µg/mL (≈ 7.48 µM)
[18]; [28]
  MIC: 0.1 µg/mL (≈ 0.239 µM)
[19]
  MIC: ≤ 0.05 µg/mL

## Cc1nc(-c2ccc(-c3cc(=O)c(C(=O)O)cn3-c3ccc(F)cc3)cc2)co1
[1]; 20 h, read-out: MIC
  MIC: 3.13 µg/mL (≈ 8.02 µM)
[2]; [20]
  MIC: 3.13 µg/mL (≈ 8.02 µM)
[3]; [21]
  MIC: 0.2 µg/mL (≈ 0.512 µM)
[4]
  MIC: 0.39 µg/mL (≈ 0.999 µM)
[5]
  MIC: 12.5 µg/mL (≈ 32 µM)
[6]; [22]
  MIC: 3.13 µg/mL (≈ 8.02 µM)
[7]
  MIC: 25 µg/mL (≈ 64 µM)
[8]; [23]
  MIC: 0.39 µg/mL (≈ 0.999 µM)
[9]; T111, 20 h, 10^6 cells per ml
  MIC: 6.25 µg/mL (≈ 16 µM)
[10]; [25]
  MIC: 3.13 µg/mL (≈ 8.02 µM)
[11]
  MIC: 0.39 µg/mL (≈ 0.999 µM)
[12]
  MIC: 0.39 µg/mL (≈ 0.999 µM)
[13]
  MIC: 1.56 µg/mL (≈ 4 µM)
[14]
  MIC: 6.25 µg/mL (≈ 16 µM)
[15]; T216, 20 h, 10^6 cells per ml
  MIC: 6.25 µg/mL (≈ 16 µM)
[16]; S68, 20 h
  MIC: 12.5 µg/mL (≈ 32 µM)
[17]
  MIC: 25 µg/mL (≈ 64 µM)
[18]; [28]
  MIC: 0.78 µg/mL (≈ 2 µM)
[19]
  MIC: 0.2 µg/mL (≈ 0.512 µM)

## CN1CCCc2cc(-c3cc(=O)c(C(=O)O)cn3-c3ccc(O)cc3)ccc21
[1]; GN918, 20 h
  MIC: 3.13 µg/mL (≈ 8.32 µM)
[2]; GN76, 20 h
  MIC: 1.56 µg/mL (≈ 4.14 µM)
[3]; [21]
  MIC: ≤ 0.05 µg/mL
[4]
  MIC: 0.2 µg/mL (≈ 0.531 µM)
[5]
  MIC: 6.25 µg/mL (≈ 16.6 µM)
[6]
  MIC: 1.56 µg/mL (≈ 4.14 µM)
[7]
  MIC: 12.5 µg/mL (≈ 33.2 µM)
[8]; [23]
  MIC: 0.39 µg/mL (≈ 1.04 µM)
[9]; T111, 20 h, 10^6 cells per ml
  MIC: 3.13 µg/mL (≈ 8.32 µM)
[10]
  MIC: 1.56 µg/mL (≈ 4.14 µM)
[11]
  MIC: 0.78 µg/mL (≈ 2.07 µM)
[12]
  MIC: 0.2 µg/mL (≈ 0.531 µM)
[13]
  MIC: 1.56 µg/mL (≈ 4.14 µM)
[14]
  MIC: 3.13 µg/mL (≈ 8.32 µM)
[15]; T216, 20 h, 10^6 cells per ml
  MIC: 3.13 µg/mL (≈ 8.32 µM)
[16]; S68, 20 h
  MIC: 6.25 µg/mL (≈ 16.6 µM)
[17]
  MIC: 12.5 µg/mL (≈ 33.2 µM)
[18]; [28]
  MIC: 0.39 µg/mL (≈ 1.04 µM)
[19]
  MIC: 0.39 µg/mL (≈ 1.04 µM)

## CN1CCc2cc(-c3cc(=O)c(C(=O)O)cn3-c3ccc(O)cc3)ccc21
[1]; GN918, 20 h
  MIC: 1.56 µg/mL (≈ 4.3 µM)
[2]; [20]
  MIC: 0.39 µg/mL (≈ 1.08 µM)
[3]; [21]
  MIC: ≤ 0.05 µg/mL
[4]
  MIC: 0.1 µg/mL (≈ 0.276 µM)
[5]
  MIC: 1.56 µg/mL (≈ 4.3 µM)
[6]; [22]
  MIC: 0.39 µg/mL (≈ 1.08 µM)
[7]
  MIC: 6.25 µg/mL (≈ 17.2 µM)
[8]; [23]
  MIC: 0.2 µg/mL (≈ 0.552 µM)
[9]; [24]
  MIC: 3.13 µg/mL (≈ 8.64 µM)
[10]; [25]
  MIC: 0.78 µg/mL (≈ 2.15 µM)
[11]
  MIC: 0.2 µg/mL (≈ 0.552 µM)
[12]
  MIC: ≤ 0.05 µg/mL
[13]
  MIC: 0.39 µg/mL (≈ 1.08 µM)
[14]
  MIC: 1.56 µg/mL (≈ 4.3 µM)
[15]; [26]
  MIC: 0.78 µg/mL (≈ 2.15 µM)
[16]; [27]
  MIC: 6.25 µg/mL (≈ 17.2 µM)
[17]
  MIC: 12.5 µg/mL (≈ 34.5 µM)
[18]; [28]
  MIC: 0.2 µg/mL (≈ 0.552 µM)
[19]
  MIC: 0.39 µg/mL (≈ 1.08 µM)

## CC1Cc2cc(-c3cc(=O)c(C(=O)O)cn3-c3ccc(O)cc3)ccc2O1 (stereo not drawn)
[1]; GN918, 20 h
  MIC: 12.5 µg/mL (≈ 34.4 µM)
[2]; [20]
  MIC: 3.13 µg/mL (≈ 8.61 µM)
[3]; GN5482, 20 h
  MIC: 1.56 µg/mL (≈ 4.29 µM)
[4]
  MIC: 3.13 µg/mL (≈ 8.61 µM)
[5]
  MIC: 12.5 µg/mL (≈ 34.4 µM)
[6]; [22]
  MIC: 3.13 µg/mL (≈ 8.61 µM)
[7]
  MIC: 25 µg/mL (≈ 68.8 µM)
[8]
  MIC: 1.56 µg/mL (≈ 4.29 µM)
[9]; T111, 20 h, 10^6 cells per ml
  MIC: 12.5 µg/mL (≈ 34.4 µM)
[10]; [25]
  MIC: 3.13 µg/mL (≈ 8.61 µM)
[11]
  MIC: 0.78 µg/mL (≈ 2.15 µM)
[12]
  MIC: 0.78 µg/mL (≈ 2.15 µM)
[13]
  MIC: 1.56 µg/mL (≈ 4.29 µM)
[14]
  MIC: 6.25 µg/mL (≈ 17.2 µM)
[15]; [26]
  MIC: 3.13 µg/mL (≈ 8.61 µM)
[16]; [27]
  MIC: 25 µg/mL (≈ 68.8 µM)
[17]
  MIC: 50 µg/mL (≈ 138 µM)
[18]
  MIC: 1.56 µg/mL (≈ 4.29 µM)
[19]
  MIC: 3.13 µg/mL (≈ 8.61 µM)

Reference: US4698352A, “4-oxo-1,4-dihydronicotinic acid derivatives, salts thereof, and antibacterial agents containing the same” (Toyama Chemical Co., Ltd., priority 1982, dated 1987)
